What is called IC50 is the midpoint of a concentration-inhibition curve.

Structures are written as SMILES.

The source of these data is the Kinase Knowledgebase extract (Sharma et al. 2016).

Sequence of PIK3CA (human) (P42336 whole entry, looked up): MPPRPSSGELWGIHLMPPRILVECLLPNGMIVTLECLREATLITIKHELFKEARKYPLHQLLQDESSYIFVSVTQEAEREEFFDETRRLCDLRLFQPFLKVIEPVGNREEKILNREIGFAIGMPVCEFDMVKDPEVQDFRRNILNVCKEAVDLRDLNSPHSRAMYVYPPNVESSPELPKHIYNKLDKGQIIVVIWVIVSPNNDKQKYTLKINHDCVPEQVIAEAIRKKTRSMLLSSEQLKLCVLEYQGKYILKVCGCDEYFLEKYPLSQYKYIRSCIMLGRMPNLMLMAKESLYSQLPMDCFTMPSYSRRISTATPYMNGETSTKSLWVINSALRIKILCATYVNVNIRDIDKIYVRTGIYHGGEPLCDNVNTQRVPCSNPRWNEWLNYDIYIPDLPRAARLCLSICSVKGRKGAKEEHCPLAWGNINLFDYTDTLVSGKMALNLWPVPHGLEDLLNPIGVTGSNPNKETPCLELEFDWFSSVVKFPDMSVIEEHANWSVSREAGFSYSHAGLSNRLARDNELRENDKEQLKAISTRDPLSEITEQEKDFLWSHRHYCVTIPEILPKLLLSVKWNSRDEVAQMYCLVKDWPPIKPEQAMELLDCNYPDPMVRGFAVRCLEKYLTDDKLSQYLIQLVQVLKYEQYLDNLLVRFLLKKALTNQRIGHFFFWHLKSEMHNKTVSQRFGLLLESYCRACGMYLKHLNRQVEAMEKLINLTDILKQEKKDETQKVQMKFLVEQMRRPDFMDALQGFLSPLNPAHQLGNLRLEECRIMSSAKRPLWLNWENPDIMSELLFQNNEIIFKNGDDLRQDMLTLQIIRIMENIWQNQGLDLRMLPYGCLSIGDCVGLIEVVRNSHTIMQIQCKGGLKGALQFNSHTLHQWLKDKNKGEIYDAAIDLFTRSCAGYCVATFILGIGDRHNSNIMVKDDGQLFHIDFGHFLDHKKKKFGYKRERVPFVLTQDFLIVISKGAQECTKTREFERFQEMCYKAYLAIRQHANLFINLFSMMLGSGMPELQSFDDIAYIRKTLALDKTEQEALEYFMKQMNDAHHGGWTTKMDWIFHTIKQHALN

The test has as its target PIK3CA (human) (UniProt P42336). In words: Assessment of PIK3CA Kinase Activity.
As for `Cc1ccncc1-c1ccc2c(N3CCOCC3)nc(-c3ccc(NC(=O)Nc4ccc(C(=O)N(C)C)cc4)cc3)nc2c1`, the IC50 was less than 50 nM.

With `CN(C)C(=O)c1ccc(NC(=O)Nc2ccc(-c3nc(N4CCOCC4)c4ncc(-c5cnn(C)c5)cc4n3)c(F)c2F)cc1`, the IC50 was less than 50 nM.

`CN(C)[C@@H]1CCN(C(=O)c2ccc(NC(=O)Nc3ccc(-c4nc(N5CCOCC5)c5ccc(-c6cncnc6)cc5n4)cc3)cc2)C1` gave an IC50 of less than 50 nM.

As for `Cc1noc(C)c1-c1cnc2c(N3CCOCC3)nc(-c3ccc(NC(=O)Nc4ccc(C(=O)N(C)C)cc4)c(F)c3)nc2c1`, the IC50 was less than 50 nM.

The compound `CN(C)C(=O)c1ccc(NC(=O)Nc2ccc(-c3nc(N4CCOCC4)c4ccc(-c5ccc(CO)o5)cc4n3)cc2)cc1F` returned an IC50 of less than 50 nM.

As to `CN(C)C(=O)c1ccc(NC(=O)Nc2ccc(-c3nc(N4CCOCC4)c4cc(F)c(-c5cccnc5)cc4n3)cc2)c(F)c1`, the IC50 was less than 50 nM.

With `CN(C)C(=O)c1ccc(NC(=O)Nc2ccc(-c3nc(N4CCOCC4)c4ncc(-c5cnn(C)c5)cc4n3)cc2)cc1`, the IC50 is less than 50 nM.

`CN(C)C(=O)c1ccc(NC(=O)Nc2ccc(-c3nc(N4CCOCC4)c4ccc(-c5ccc(CO)o5)cc4n3)cc2F)cc1` gave an IC50 of less than 50 nM.

`CN(C)C(=O)c1ccc(NC(=O)Nc2ccc(-c3nc(N4CCOCC4)c4ccc(-c5ccccn5)cc4n3)cc2F)cc1` yielded an IC50 of 50 to 200 nM.

Take `CN(C)C(=O)c1ccc(NC(=O)Nc2ccc(-c3nc(N4CCOCC4)c4ccc(-c5cccc(S(C)(=O)=O)c5)cc4n3)cc2F)cn1`: the IC50 is less than 50 nM.

`CN(C)C(=O)c1ccc(NC(=O)Nc2ccc(-c3nc(N4CCOCC4)c4ccc(-c5ccc(CO)o5)cc4n3)cc2)cc1` came in with an IC50 of less than 50 nM.

In the case of `Cc1ccncc1-c1ccc2c(N3CCOCC3)nc(-c3ccc(NC(=O)Nc4ccc(C(=O)N(C)C)cc4)c(F)c3)nc2c1`, the IC50 is less than 50 nM.

In turn, `CN(C)C(=O)c1ccc(NC(=O)Nc2ccc(-c3nc(N4CCOCC4)c4ccc(-c5cccnc5F)cc4n3)cc2)cc1` returned a half-inhibitory concentration (IC50) of 50 to 200 nM.

`CN(C)C(=O)c1ccc(NC(=O)Nc2ccc(-c3nc(N4CCOCC4)c4ccc(-c5cccnc5)cc4n3)c(F)c2)cc1` displayed a half-inhibitory concentration (IC50) of less than 50 nM.

With `N[C@H]1CCN(C(=O)c2ccc(NC(=O)Nc3ccc(-c4nc(N5CCOCC5)c5ccc(-c6cncnc6)cc5n4)cc3F)cc2)C1`, the IC50 was less than 50 nM.

In turn, `CN(C)C(=O)c1ccc(NC(=O)Nc2ccc(-c3nc(N4CCOCC4)c4ncc(-c5cncnc5)cc4n3)c(F)c2)cc1` registered an IC50 of less than 50 nM.

On to `Cc1ccc(-c2ccc3c(N4CCOC(C)C4)nc(-c4ccc(NC(=O)Nc5ccc(C(=O)N(C)C)cc5)cc4)nc3c2)o1` (configuration not stated), for which the IC50 was in the range of 50 to 200 nM.

`Cn1cc(-c2cnc3c(N4CCOCC4)nc(-c4ccc(NC(=O)Nc5ccc(C(N)=O)cc5)cc4)nc3c2)cn1`: the IC50 is less than 50 nM.

Take `CN1CCN(C(=O)c2ccc(NC(=O)Nc3ccc(-c4nc(N5CCOCC5)c5ccc(-c6cccc(S(C)(=O)=O)c6)cc5n4)cc3)cc2)CC1`: the IC50 is less than 50 nM.

On to `CN(C)C(=O)c1ccc(NC(=O)Nc2ccc(-c3nc(N4CCOCC4)c4cc(F)c(-c5cncnc5)cc4n3)cc2)cc1`, for which the IC50 is less than 50 nM.

Turning to `COc1ncc(-c2ccc3c(N4CCOCC4)nc(-c4ccc(NC(=O)Nc5ccc(C(=O)N(C)C)cc5)nc4)nc3c2)cn1`, the IC50 was less than 50 nM.

In turn, `CN(C)C(=O)c1ccc(NC(=O)Nc2ccc(-c3nc(N4CCOCC4)c4ncc(-c5cccnc5F)cc4n3)cc2F)cc1` came in with an IC50 of less than 50 nM.

For the compound `O=C(Nc1ccc(C(=O)N2CCC(O)C2)cc1)Nc1ccc(-c2nc(N3CCOCC3)c3ccc(-c4ccco4)cc3n2)cc1` (configuration not stated), the IC50 was less than 50 nM.

In turn, `Cc1ccc(-c2ccc3c(N4CCOCC4)nc(-c4ccc(NC(=O)Nc5ccc(C(=O)N6CC[C@H](N(C)C)C6)cc5)cc4)nc3c2)o1` gave an IC50 of 50 to 200 nM.

Take `CC1CN(c2nc(-c3ccc(NC(=O)Nc4ccc(C(=O)N(C)C)cc4)cc3)nc3cc(-c4cncnc4)ccc23)CCO1` (configuration not stated): the IC50 was less than 50 nM.

`Cc1ccc(-c2ccc3c(N4CCOCC4)nc(-c4ccc(NC(=O)Nc5ccc(C(=O)NCCN(C)C)cc5)cc4)nc3c2)o1` registered an IC50 of 50 to 200 nM.

`CN1CCN(C(=O)c2ccc(-c3ccc4c(N5CCOCC5)nc(-c5ccc(NC(=O)Nc6ccc(C(=O)N(C)C)cc6)cc5)nc4c3)o2)CC1` returned an IC50 of less than 50 nM.

As to `CN1CCN(C(=O)c2ccc(NC(=O)Nc3ccc(-c4nc(N5CCOCC5)c5ncc(-c6cncnc6)cc5n4)cc3)cc2)CC1`, the concentration for half-maximal inhibition (IC50) is less than 50 nM.

`CN(C)C(=O)c1ccc(NC(=O)Nc2ccc(-c3nc(N4CCOCC4)c4ccc(-c5cccc(S(C)(=O)=O)c5)cc4n3)cc2)cn1`: the IC50 lay in the range of 50 to 200 nM.

Turning to `CN(C)C(=O)c1ccc(NC(=O)Nc2ccc(-c3nc(N4CCOCC4)c4ncc(-c5cccnc5)cc4n3)cc2)cc1F`, the half-inhibitory concentration (IC50) is less than 50 nM.

The compound `CN(C)C(=O)c1ccc(NC(=O)Nc2ccc(-c3nc(N4CCOCC4)c4ccc(-c5ccco5)cc4n3)cc2)cc1F` had an IC50 of 50 to 200 nM.

`CN(C)C(=O)c1ccc(NC(=O)Nc2ccc(-c3nc(N4CCOCC4)c4ccc(-c5ccnnc5)cc4n3)cc2)cc1` came in with an IC50 of 50 to 200 nM.

Compound `Cc1ncccc1-c1ccc2c(N3CCOCC3)nc(-c3ccc(NC(=O)Nc4ccc(C(=O)N(C)C)cc4)cc3F)nc2c1` displayed an IC50 of less than 50 nM.

The compound `COc1ccc(-c2ccc3c(N4CCOCC4)nc(-c4ccc(NC(=O)Nc5ccc(C(=O)N(C)C)cc5)c(F)c4)nc3c2)cn1` returned an IC50 of 50 to 200 nM.

With `CC(=O)Nc1cccc(-c2ccc3c(N4CCOCC4)nc(-c4ccc(NC(=O)Nc5ccc(C(=O)N(C)C)cc5)cc4)nc3c2)c1`, the IC50 was less than 50 nM.

Take `COc1ncccc1-c1ccc2c(N3CCOCC3)nc(-c3ccc(NC(=O)Nc4ccc(C(=O)N(C)C)cc4)cc3)nc2c1`: the IC50 was less than 50 nM.

`CN(C)C(=O)c1ccc(NC(=O)Nc2ccc(-c3nc(N4CCOCC4)c4ccc(-c5cccnc5)cc4n3)cc2)cc1` returned a concentration for half-maximal inhibition (IC50) of less than 50 nM.

`CN(C)C(=O)c1ccc(NC(=O)Nc2ccc(-c3nc(N4CCOCC4)c4ccc(-c5ccccn5)cc4n3)cc2)cc1F` displayed an IC50 of less than 50 nM.

In the case of `CN(C)C(=O)c1ccc(NC(=O)Nc2ccc(-c3nc(N4CCOCC4)c4ccc(CO)cc4n3)cc2)cc1`, the half-inhibitory concentration (IC50) is less than 50 nM.

`COc1ncc(-c2cnc3c(N4CCOCC4)nc(-c4ccc(NC(=O)Nc5ccc(C(=O)N(C)C)cc5)cc4F)nc3c2)cn1` gave an IC50 of less than 50 nM.

As to `Cc1ccc(-c2ccc3c(N4CCOCC4)nc(-c4ccc(NC(=O)Nc5ccc(C(=O)N(C)C)cc5)cc4)nc3c2)cn1`, the IC50 is less than 50 nM.

`COc1ncc(-c2ccc3c(N4CCOCC4)nc(-c4ccc(NC(=O)Nc5ccc(C(=O)N(C)C)cc5)c(F)c4)nc3c2)cn1` gave an IC50 of 50 to 200 nM.

In turn, `CN(C)C(=O)c1ccc(NC(=O)Nc2ccc(-c3nc(N4CCOCC4)c4ccc(-c5cccnc5F)cc4n3)cc2)cc1F` had an IC50 of 50 to 200 nM.

For `CS(=O)(=O)c1cccc(-c2ccc3c(N4CCOCC4)nc(-c4ccc(NC(=O)Nc5ccc(C(N)=O)cc5)cc4)nc3c2)c1`, the IC50 was in the range of 50 to 200 nM.

The compound `CN(C)C(=O)c1ccc(NC(=O)Nc2ccc(-c3nc(N4CCOCC4)c4ncc(-c5cnn(C)c5)cc4n3)cc2)cc1F` yielded a half-maximal inhibitory concentration (IC50) of less than 50 nM.

`Cc1nn(C)c(C)c1-c1ccc2c(N3CCOCC3)nc(-c3ccc(NC(=O)Nc4ccc(C(=O)N(C)C)cc4)cc3)nc2c1` yielded an IC50 of less than 50 nM.

`CN(C)CCN(C)C(=O)c1ccc(NC(=O)Nc2ccc(-c3nc(N4CCOCC4)c4ccc(-c5ccco5)cc4n3)cc2)cc1` had an IC50 of less than 50 nM.
